Assay results published in patent US4731375A, “Coumarin derivatives and antiallergic agents containing the same” (Kaken Pharmaceutical Co., Ltd., priority 1984, dated 1988).

Experiments:
[1] = system: passive cutaneous anaphylaxis by homocytotropic antibody (HTA); assay: Passive Cutaneous Anaphylaxis (PCA) test in rat (Test Example 1); type: in vivo, rat (Wistar); settings: 0.5 h, 72 hour PCA, intravenous just before antigen, sacrificed 30 minutes after antigen challenge, read-out: ID50 (fifty % inhibitory dose for the leaked amount of the pigment)
Procedure: (§1) Fifty % inhibitory dose (ID50) in Passive Cutaneous Anaphylaxis (PCA) test in rat (Test Example 1) and Minimal Lethal Dose (MLD) in intraperitoneal acute toxicity test in mouse (Test Example 2) were determined for the typical compounds of the present invention as follows:
The antiallergic activities of the chromene derivatives of the present invention were tested in passive cutaneous anaphylaxis (hereinafter referred to as "PCA") by homocytotropic antibody (hereinafter referred to as "HTA").
DNP-As(2,4-dinitro phenyl-coupled Ascaris extract) was prepared according to the method by Strejan et al. (J. Immunol. Vol. 98, P 893, (1967)) and by Eisen (J. Amer. Chem. Soc. Vol. 75, P 4593, (1953)) to be used as antigen. Antiserum containing HTA was prepared by the method according to Tada and Okumura (J. Immunol. Vol. 106, P 1002, (1972)) as follows: i.e. spleen was taken out from Wistar female rat weighing 180 to 200 g and several days after 1 mg of DNP-As and 1×10^10 of Bordetella pertussis vaccine were injected into four footpads of the rat to induce senitization. After five days, again 0.5 mg of DNP-As was solely injected into the dorsal muscles. Eight days after priming, blood was taken by paracentesis of aorta under anesthetic condition with ether and the obtained antiserum was stored at -80° C.
Titer of the stored antiserum was determined by 72 hour PCA method in rat as described in the following item (2). The maximal dilution of the antiserum which can give a spot with a diameter of around 5 mm was usually 500 times.
The diluted antiserum (×30) was injected 0.05 ml/site intradermally into the shaved back of normal Wistar rat weighing 140 to 160 g. After 72 hours, 1 ml of physiological saline containing 2 mg of DNP-As and 2.5 mg of Evans blue was injected intravenously.
Test compound was dissolved in 0.5% aqueous solution of KHCO3, which was administered intravenously in an amount of 2 ml/kg just before the administration of the antigen. The animal was sacrificed 30 minutes after antigen challenge and the cutis was peeled off. The intensity of PCA was evaluated for the measurment of the leaked amount of the pigment. The leaked pigment was extracted according to the method by Harada et al. (Jpn. J. Allergol., Vol. 15, P 1, (1966)) and the leaked amount was measured by spectrophotometry. Fifty % inhibitory dose for the leaked amount of the pigment was regarded as ID50 value of the test compound.

mouse = assay: intraperitoneal acute toxicity test in mouse (Test Example 2); type: in vivo, mouse (Slc: ddy male); settings: 14 days observation, five mice per group
Procedure: as §1
The intraperitoneal actute toxicity test was carried out using mouse for the chromene derivatives of the present invention. Normal Slc: ddy male 4 weeks mice were preliminarily breeded for a week at a breeding room and those weighing 25 to 27 g were subjected to the test. The test compounds were used by suspending in 0.5% aqueous solution of sodium carboxymethylcellulose. Ten ml/kg was administered intraperitoneally through the right abdomen of the animal using the prescribed needle (five mice per group). The lethal dose was presumed by the observation during 14 days after administration.

[2] = system: experimental asthma model of animals; assay: experimental asthma model of animals; type: in vivo

SMILES | ED50 [1] | MLD (Minimal Lethal Dose) (mouse) | inhibitory effect in experimental asthma model [2]
O=C(O)COc1cccc2cc(-c3nnn[nH]3)c(=O)oc12 [Compound A, [2-oxo-3-(1H-tetrazole-5-yl)-2H-chromene-8-yloxy]acetic acid] | 0.5 mg/kg | > 1000 mg/kg | 
O=C(O)CCCOc1cccc2cc(-c3nnn[nH]3)c(=O)oc12 [Compound B, 4-[2-oxo-3-(1H-tetrazole-5-yl)-2H-chromene-8 yloxy]butyric acid] | 0.1 mg/kg | > 1600 mg/kg | inhibitory effect in high degree
O=C(O)CCCOc1ccc2oc(=O)c(-c3nnn[nH]3)cc2c1 [Compound C, 4-[2-oxo-3-(1H-tetrazole-5-yl)-2H-chromene-6-yloxy]butyric acid] | 0.1 mg/kg | > 1500 mg/kg | 
O=C(O)CCCCCOc1cccc2cc(-c3nnn[nH]3)c(=O)oc12 [Compound D, 6-[2-oxo-3-(1H-tetrazole-5-yl)-2H-chromene-8-yloxy]hexanoic acid] | 0.16 mg/kg | > 1600 mg/kg | 
O=C(O)CCCCCOc1ccc2cc(-c3nnn[nH]3)c(=O)oc2c1 [Compound E, 6-[2-oxo-3-(1H-tetrazole-5-yl)-2H-chromene-7-yloxy]hexanoic acid] | 0.2 mg/kg | > 1500 mg/kg | 
O=C(O)CCCCCOc1ccc2oc(=O)c(-c3nnn[nH]3)cc2c1 [Compound F, 6-[2-oxo-3-(1H-tetrazole-5-yl)-2H-chromene-6-yloxy]hexanoic acid] | 0.16 mg/kg | > 1600 mg/kg | 
O=C(O)CCCCCOc1cccc2oc(=O)c(-c3nnn[nH]3)cc12 [Compound G, 6-[2-oxo-3-(1H-tetrazole-5-yl)-2H-chromene-5-yloxy]hexanoic acid] | 0.2 mg/kg | > 1500 mg/kg | 
